Values quoted from earlier work in patent US10716959B2, “Polymer-flavonoid conjugates and hydrogels for biomedical applications” (AGENCY FOR SCIENCE, TECHNOLOGY AND RESEARCH, priority 2013, dated 2020).

Settings: physiological temperature and pH

half-life: less than 30 min
Structure (SMILES): O=C(O[C@@H]1Cc2c(O)cc(O)cc2O[C@@H]1c1cc(O)c(O)c(O)c1)c1cc(O)c(O)c(O)c1 [EGCG, (−)-epigallocatechin-3-gallate]
